Results: patent publication US20250195536A1, “BICYCLOOCTANE KRAS INHIBITORS” (Incyte Corporation, priority 2023, published 2025)

Tests used:
[1] = Caco2 assay (permeability, Papp A-B); type: in vitro ADME; settings: human, Caco-2, absorptive direction (A-B), 50 μM test compound, 4% BSA in receiver
Procedure, shortened: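 Absorptive (A-B) Papp: 50 μM test compound in HBSS added to apical side of 22-25-day Caco-2 monolayers (TEER 300 Ω·cm^2), receiver buffer containing 4% BSA. After 120 min at 37 °C, 5% CO2, both sides analysed by LCMS; Papp calculated from flux rate normalized to area and donor amount.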

[2] = biological target: KRAS G12D (Homo sapiens, UniProt P01116, G12D); assay: GDP-GTP exchange assay (KRAS G12D); type: biochemical; settings: bodipy-GDP/GppNHp exchange with SOS1; 4 h pre-incubation, 2 h reaction;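 further: one dagger IC50 up to 100 nM and two daggers above 100 nM up to 1 μM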
Procedure, shortened: (§1)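 IC50 came from a four-parameter fit of fluorescence loss (485/520 nm) as SOS1 (150 nM) swapped bodipy-GDP for GppNHp (500 μM) on 2.5 nM KRAS, final concentrations. Compounds were pre-incubated 4 h at r.t. (pH 7.5 Hepes, 10 mM MgCl2); exchange ran 2 h (G12D) or 3 h (G12V).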

[3] = biological target: KRAS G12V (Homo sapiens, UniProt P01116, G12V); assay: GDP-GTP exchange assay (KRAS G12V); type: biochemical; settings: bodipy-GDP/GppNHp exchange with SOS1; 3 h incubation after GppNHp-SOS1;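 further: one dagger IC50 up to 100 nM and two daggers above 100 nM up to 1 μM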
Procedure, shortened: as §1

KRAS G12D, sequence (P01116 1-188 isoform P01116-2 G12D): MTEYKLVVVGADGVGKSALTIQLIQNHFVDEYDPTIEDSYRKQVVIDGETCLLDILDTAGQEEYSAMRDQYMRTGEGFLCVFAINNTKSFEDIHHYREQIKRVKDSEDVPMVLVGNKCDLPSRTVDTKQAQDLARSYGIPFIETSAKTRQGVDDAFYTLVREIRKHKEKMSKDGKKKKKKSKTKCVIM
KRAS G12V, sequence (P01116 1-188 isoform P01116-2 G12V): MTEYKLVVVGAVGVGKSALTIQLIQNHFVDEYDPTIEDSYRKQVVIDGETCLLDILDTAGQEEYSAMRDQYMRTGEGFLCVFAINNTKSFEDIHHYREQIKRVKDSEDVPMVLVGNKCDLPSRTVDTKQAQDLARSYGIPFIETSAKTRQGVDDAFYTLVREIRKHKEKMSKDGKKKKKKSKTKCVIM

Row | Papp A→B at 120 min, 50 μM [1] | G12D_exchange (KRAS_G12D exchange assay IC50) [2] | G12V_exchange (KRAS_G12V exchange assay IC50) [3] | SMILES
1 | ≤ 0.5 ×10⁻⁶ cm/s | † | † | Cc1nc2c(F)c(-c3cccc(Cl)c3Cl)c(CCC#N)cc2c2c1cc([C@H]1[C@H]3C[C@H](CN(c4cnsc4)C3)N1C(=O)C1CC1)n2[C@H]1[C@H]2CN[C@@H]1C2 (atropisomer, axis not shown; (Ra)) [Example 104, 3-((Ra)-1-((1R,4R,5S)-2-azabicyclo[2.1.1]hexan-5-yl)-2-((1S,5R,7R)-6-(cyclopropanecarbonyl)-3-(isothiazol-4-yl)-3,6-diazabicyclo[3.2.1]octan-7-yl)-7-(2,3-dichlorophenyl)-6-fluoro-4-methyl-1H-pyrrolo[3,2-c]quinolin-8-yl)propanenitrile]
2 | ≤ 0.5 ×10⁻⁶ cm/s | †† | † | Cc1nc2c(F)c(-c3cccc(Cl)c3Cl)c(CCC#N)cc2c2c1cc([C@H]1[C@H]3C[C@H](CN(c4cccc(Cl)c4)C3)N1C(=O)C1CC1)n2[C@H]1[C@H]2CN[C@@H]1C2 (atropisomer, axis not shown; (Ra)) [Example 19, 3-((Ra)-1-((1R,4R,5S)-2-azabicyclo[2.1.1]hexan-5-yl)-2-((1S,5R,7R)-3-(3-chlorophenyl)-6-(cyclopropanecarbonyl)-3,6-diazabicyclo[3.2.1]octan-7-yl)-7-(2,3-dichlorophenyl)-6-fluoro-4-methyl-1H-pyrrolo[3,2-c]quinolin-8-yl)propanenitrile]
3 | ≤ 0.5 ×10⁻⁶ cm/s | †† | † | Cc1nc2c(F)c(-c3cccc(Cl)c3Cl)c(CCC#N)cc2c2c1cc(C1C3CC(CN(C)C3=O)N1C(=O)C1CC1)n2C1C2CNC1C2 (atropisomer, axis not shown; (Ra)) [Example 112, 3-((Ra)-1-((1R,4R,5S)-2-Azabicyclo[2.1.1]hexan-5-yl)-2-((1R,5R,7R)-6-(cyclopropanecarbonyl)-3-methyl-2-oxo-3,6-diazabicyclo[3.2.1]octan-7-yl)-7-(2,3-dichlorophenyl)-6-fluoro-4-methyl-1H-pyrrolo[3,2-c]quinolin-8-yl)propanenitrile]
4 | ≤ 0.5 ×10⁻⁶ cm/s | †† | † | Cc1nc2c(F)c(-c3cccc(Cl)c3Cl)c(CCC#N)cc2c2c1cc([C@H]1[C@H]3C[C@H](CN(c4ccc(OC(F)(F)F)cc4F)C3)N1C(=O)C1CC1)n2[C@H]1[C@H]2CN[C@@H]1C2 (atropisomer, axis not shown; (Ra)) [Example 28, 3-((Ra)-1-((1R,4R,5S)-2-azabicyclo[2.1.1]hexan-5-yl)-2-((1S,5R,7R)-6-(cyclopropanecarbonyl)-3-(2-fluoro-4-(trifluoromethoxy)phenyl)-3,6-diazabicyclo[3.2.1]octan-7-yl)-7-(2,3-dichlorophenyl)-6-fluoro-4-methyl-1H-pyrrolo[3,2-c]quinolin-8-yl)propanenitrile]
5 | ≤ 0.5 ×10⁻⁶ cm/s | † | † | COc1cc(N2C[C@@H]3C[C@H](C2)N(C(=O)C2CC2)[C@H]3c2cc3c(C)nc4c(F)c(-c5cccc(Cl)c5Cl)c(CCC#N)cc4c3n2[C@H]2[C@H]3CN[C@@H]2C3)ccn1 (atropisomer, axis not shown; (Ra)) [Example 59, 3-((Ra)-1-((1R,4R,5S)-2-azabicyclo[2.1.1]hexan-5-yl)-2-((1S,5R,7R)-6-(cyclopropanecarbonyl)-3-(2-methoxypyridin-4-yl)-3,6-diazabicyclo[3.2.1]octan-7-yl)-7-(2,3-dichlorophenyl)-6-fluoro-4-methyl-1H-pyrrolo[3,2-c]quinolin-8-yl)propanenitrile]
6 | ≤ 0.5 ×10⁻⁶ cm/s | † | † | Cc1nc2c(F)c(-c3cccc(Cl)c3Cl)c(CCC#N)cc2c2c1cc([C@H]1[C@H]3C[C@H](CN(c4ccc(C(F)(F)F)cn4)C3)N1C(=O)C1CC1)n2[C@H]1[C@H]2CN[C@@H]1C2 [Example 30, 3-((Ra)-1-((1R,4R,5S)-2-Azabicyclo[2.1.1]hexan-5-yl)-2-((1 S,5R,7R)-6-(cyclopropanecarbonyl)-3-(5-(trifluoromethyl)pyridin-2-yl)-3,6-diazabicyclo[3.2.1]octan-7-yl)-7-(2,3-dichlorophenyl)-6-fluoro-4-methyl-1H-pyrrolo[3,2-c]quinolin-8-yl)propanenitrile]
7 | ≤ 0.5 ×10⁻⁶ cm/s | † | † | Cc1nc2c(F)c(-c3cccc(Cl)c3Cl)c(CCC#N)cc2c2c1cc([C@H]1[C@H]3C[C@H](CN(c4ccn5ccnc5c4)C3)N1C(=O)C1CC1)n2[C@H]1[C@H]2CN[C@@H]1C2 (atropisomer, axis not shown; (Ra)) [Example 61, 3-((Ra)-1-((1R,4R,5S)-2-azabicyclo[2.1.1]hexan-5-yl)-2-((1S,5R,7R)-6-(cyclopropanecarbonyl)-3-(imidazo[1,2-a]pyridin-7-yl)-3,6-diazabicyclo[3.2.1]octan-7-yl)-7-(2,3-dichlorophenyl)-6-fluoro-4-methyl-1H-pyrrolo[3,2-c]quinolin-8-yl)propanenitrile]
8 | ≤ 0.5 ×10⁻⁶ cm/s | † | † | Cc1nc2c(F)c(-c3cccc(Cl)c3Cl)c(CCC#N)cc2c2c1cc([C@H]1[C@H]3C[C@H](CN(c4nc(C#N)cs4)C3)N1C(=O)C1CC1)n2[C@H]1[C@H]2CN[C@@H]1C2 (atropisomer, axis not shown; (Ra)) [Example 96, 2-((1S,5R,7R)-7-((Ra)-1-((1R,4R,5S)-2-azabicyclo[2.1.1]hexan-5-yl)-8-(2-cyanoethyl)-7-(2,3-dichlorophenyl)-6-fluoro-4-methyl-1H-pyrrolo[3,2-c]quinolin-2-yl)-6-(cyclopropanecarbonyl)-3,6-diazabicyclo[3.2.1]octan-3-yl)thiazole-4-carbonitrile]
9 | ≤ 0.5 ×10⁻⁶ cm/s | † | † | Cc1nc2c(F)c(-c3cccc(Cl)c3Cl)c(CCC#N)cc2c2c1cc([C@H]1[C@H]3C[C@H](CN(c4ncc(OC(F)F)cn4)C3)N1C(=O)C1CC1)n2[C@H]1[C@H]2CN[C@@H]1C2 (atropisomer, axis not shown; (Ra)) [Example 45, 3-((Ra)-1-((1R,4R,5S)-2-azabicyclo[2.1.1]hexan-5-yl)-2-((1S,5R,7R)-6-(cyclopropanecarbonyl)-3-(5-(difluoromethoxy)pyrimidin-2-yl)-3,6-diazabicyclo[3.2.1]octan-7-yl)-7-(2,3-dichlorophenyl)-6-fluoro-4-methyl-1H-pyrrolo[3,2-c]quinolin-8-yl)propanenitrile]
10 | 0.5 to 1 ×10⁻⁶ cm/s | †† | † | COc1ccnc(N2C[C@@H]3C[C@H](C2)N(C(=O)C2CC2)[C@H]3c2cc3c(C)nc4c(F)c(-c5cccc(Cl)c5Cl)c(CCC#N)cc4c3n2[C@H]2[C@H]3CN[C@@H]2C3)c1F (atropisomer, axis not shown; (Ra)) [Example 55, 3-((Ra)-1-((1R,4R,5S)-2-azabicyclo[2.1.1]hexan-5-yl)-2-((1S,5R,7R)-6-(cyclopropanecarbonyl)-3-(3-fluoro-4-methoxypyridin-2-yl)-3,6-diazabicyclo[3.2.1]octan-7-yl)-7-(2,3-dichlorophenyl)-6-fluoro-4-methyl-1H-pyrrolo[3,2-c]quinolin-8-yl)propanenitrile]
11 | ≤ 0.5 ×10⁻⁶ cm/s | † | † | Cc1cnc(N2C[C@@H]3C[C@H](C2)N(C(=O)C2CC2)[C@H]3c2cc3c(C)nc4c(F)c(-c5cccc(Cl)c5Cl)c(CCC#N)cc4c3n2[C@H]2[C@H]3CN[C@@H]2C3)s1 (atropisomer, axis not shown; (Ra)) [Example 91, 3-((Ra)-1-((1R,4R,5S)-2-azabicyclo[2.1.1]hexan-5-yl)-2-((1S,5R,7R)-6-(cyclopropanecarbonyl)-3-(5-methylthiazol-2-yl)-3,6-diazabicyclo[3.2.1]octan-7-yl)-7-(2,3-dichlorophenyl)-6-fluoro-4-methyl-1H-pyrrolo[3,2-c]quinolin-8-yl)propanenitrile]
12 | ≤ 0.5 ×10⁻⁶ cm/s | † | † | Cc1nc2c(F)c(-c3cccc(Cl)c3Cl)c(CCC#N)cc2c2c1cc([C@H]1[C@H]3C[C@H](CN(c4cccc(OC(F)F)n4)C3)N1C(=O)C1CC1)n2[C@H]1[C@H]2CN[C@@H]1C2 (atropisomer, axis not shown; (Ra)) [Example 86, 3-((Ra)-1-((1R,4R,5S)-2-azabicyclo[2.1.1]hexan-5-yl)-2-((1S,5R,7R)-6-(cyclopropanecarbonyl)-3-(6-(difluoromethoxy)pyridin-2-yl)-3,6-diazabicyclo[3.2.1]octan-7-yl)-7-(2,3-dichlorophenyl)-6-fluoro-4-methyl-1H-pyrrolo[3,2-c]quinolin-8-yl)propanenitrile]
